Data on five molecules can be found in patent US9637502B2, “Crystal form of Cefathiamidine compound and preparation method therefor” (TIANJIN UNIVERSITY, priority 2014, dated 2017).

Series [1] can be described thus: Differential scanning calorimetry, decomposing exothermic peak. It counts as physicochemical. The conditions noted are these: 25˜200° C., 10° C./min, nitrogen 80 mL/min. On the procedure:
The novel crystalline form of Cefathiamidine compound provided in the present invention is determined by differential scanning calorimeter, and the differential scanning calorimetry thermogram comprises a melting endothermic peak at 169.6±1° C. and a decomposing exothermic peak at 172.2±1° C. as shown in FIG. 6. Test conditions are as follows: temperature range, 25˜200° C., temperature rising rate, 10° C./min, nitrogen protection: 80 mL/min.
On the technique in general: Differential scanning calorimetry records heat flow against a reference as temperature is scanned.

A short description of series [2]: Reproductive toxicity test. The class given is in vivo. The conditions noted are these: compared with prior art. As to the method: (§1) The novel crystalline form of Cefathiamidine compound of the present invention was tested by toxicity tests and in vitro antibacterial activity tests (taking the crystalline form of Cefathiamidine compound obtained in Example 1 for example).

In a further series the test system is haemophilus influenza. Nature of the series: In vitro antibacterial activity test. It counts as cell-based. The following applies: against haemophilus influenza. On the procedure:
as §1
(§2) Thus, the antibacterial activity was better than that of any prior art, and was more suitable for clinical application.

The next series deals with streptococcus pyogenes. Nature of the series: In vitro antibacterial activity test. The following applies: against streptococcus pyogenes. The class given is cell-based. As to the method:
as §1, §2

The next series relates to enterococcus. Nature of the series: In vitro antibacterial activity test. The class given is cell-based. The following applies: against enterococcus. As to the method:
as §1, §2

The next series concerns streptococcus pneumonia. Nature of the series: In vitro antibacterial activity test. It counts as cell-based. The conditions noted are these: Streptococcus pneumoniae; against streptococcus pneumonia. As to the method:
as §1, §2

The next series deals with another three bacterias. Briefly: In vitro antibacterial activity test. The class given is cell-based. The following applies: against another three bacterias. On the procedure: as §1, §2
The nature of series [3]: Toxicity test, LD50 in mice. The following applies: mouse, in vivo. As to the method: as §1
Series [4] in a line: Thermal stability tests (storage). The conditions noted are these: within 4 months at 30° C. It counts as physicochemical. On the procedure:
5 g of solid Cefathiamidine compound with a purity of 98% was added to 100 mL of ethanol at a temperature of 45° C., until being totally dissolved to form a solution, and then 300 mL of isopropanol as a solventing-out agent was dropwise added to the solution within 3 hours; followed by cooling the solution down to 0° C. at a rate of 0.2° C./min; continuing to stir for 3 hours.

For series [5] the following is noted: prior-art crystalline forms; cited from earlier work.

Consider `CC(=O)OCC1=C(C(=O)O)N2C(=O)[C@@H](NC(=O)CSC(=NC(C)C)NC(C)C)[C@H]2SC1`, for which the “thermal decomposing temperature (decomposing exothermic peak, DSC)” value (“thermal decomposing temperature” for short) in series [1] is 172.2±1 °C.

On to `CC(=O)OCC1=C(C(=O)O)N2C(=O)[C@@H](NC(=O)CSC(=NC(C)C)NC(C)C)[C@H]2SC1.N` [Example 1, (6R,7R)-3[(acetyloxy)methyl]-7-[α-(N,N′-diisopropyl-carbamimidoylsulfanyl)-acetylamino]-8-oxo-5-thia-1-aza-bicyclo[4,2,0]oct-2-ene-2-carboxylic acid ammonium salt], for which the “thermal decomposing temperature” value in [1] is 172.2 °C. Besides, the reproductive toxicity result in series [2] was “lower reproductive toxicity than that of any prior art”. Also, the MIC90 with haemophilus influenza was 1.8 µg/mL; against streptococcus pyogenes it was 0.48 µg/mL; with enterococcus, 1.9 µg/mL; against streptococcus pneumonia, 0.24 µg/mL; with another three bacterias, < 7.8 µg/mL. Besides, the LD50 (usually the dose at which mortality reaches 50%) in [3] (ip, intraperitoneal injection) is 1300 ± 200 mg/kg; in [3] (mice, intravenous injection) it was 1100 ± 20 mg/kg. For the same molecule, the “thermal stability (change on storage)” value in series [4] is recorded as “did not make any change”.

In the case of `CC(=O)OCC1=C(C(=O)O)N2C(=O)[C@@H](NC(=O)CSC(=NC(C)C)NC(C)C)[C@H]2SC1` [Example 6], in series [1], the “thermal decomposing temperature” value is 171.8 °C. Besides, in [4], the “thermal stability (change on storage)” value was “did not make any change”.

Turning to `CC(=O)OCC1=C(C(=O)O)N2C(=O)[C@@H](NC(=O)CSC(=NC(C)C)NC(C)C)[C@H]2SC1` [crystalline form of Cefathiamidine obtained from acetonitril], the “thermal cracking / decomposition temperature” value in series [5] is 145.4 °C.

As for `CC(=O)OCC1=C(C(=O)O)N2C(=O)[C@@H](NC(=O)CSC(=NC(C)C)NC(C)C)[C@H]2SC1` [crystalline form prepared in CN1495187A], the “thermal cracking / decomposition temperature” value in series [5] was ≥ 154±1 °C.
